Results: patent US20230011869A1 (Hoffmann-La Roche Inc., priority 2018, published 2023)
Counter-ions that a name gives are not always drawn.

System: Acinetobacter baumannii ATCC17978
Test: Antimicrobial susceptibility testing: 90% growth inhibitory concentration (IC90) determination, Iso-Sensitest broth
Assay type: cell-based
Details: 90% growth inhibitory concentration, Acinetobacter baumannii ATCC17978, Iso-Sensitest broth, OD 600 nm over 16 h; read-out: ATCC17978 IC90
Outline: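 A. baumannii ATCC17978 grown in Iso-Sensitest broth across 10 compound concentrations at 35±2 °C.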

| SMILES | IC90 |
| --- | --- |
| Cc1cc(Nc2nccn3c(-c4ccc(OCC#N)c(F)c4Cl)cnc23)ccc1C(=O)N1CCN(C(=O)N2CCO[C@H](CN)C2)CC1 [Example 157, 2-[4-[8-[4-[4-[(2R)-2-(aminomethyl)morpholine-4-carbonyl]piperazine-1-carbonyl]-3-methyl-anilino]imidazo[1,2-a]pyrazin-3-yl]-3-chloro-2-fluoro-phenoxy]acetonitrile formate] | 92 nM |
| Cc1cc(Nc2nccn3c(-c4ccc(OC(F)F)cc4)cnc23)ccc1C(=O)N1CCC(C(=O)O)CC1 [Example 1, 1-(4-((3-(4-(difluoromethoxy)phenyl)imidazo[1,2-a]pyrazin-8-yl)amino)-2-methylbenzoyl)piperidine-4-carboxylic acid] | 1700 nM |
| CCc1cc(Nc2nccn3c(-c4ccc(OS(C)(=O)=O)c(F)c4F)cnc23)ccc1C(=O)N1CCN(C(=O)C2CCNCC2)CC1 [Example 451, [4-[8-[3-ethyl-4-[4-(piperidine-4-carbonyl)piperazine-1-carobnyl]anilino]imidazo[1,2-a]pyrazin-3-yl]-2,3-difluorophenyl] methanesulfonate; formic acid] | 2700 nM |
| COc1ccc(-c2cnc3c(Nc4ccc(C(=O)N5CCN(C(=O)[C@H]6CCN6)CC5)c(C)c4)nccn23)cc1F [Example 522, [4-[(2R)-azetidine-2-carbonyl]piperazin-1-yl]-[4-[[3-(3-fluoro-4-methoxyphenyl)imidazo[1,2-a]pyrazin-8-yl]amino]-2-methylphenyl]methanone; hy-drochloride] | 370 nM |
| COc1ccc(-c2cnc3c(Nc4ccc(C(=O)N5CCNC(CN(C)C)C5)c(C)c4)nccn23)cc1F (stereo not shown) [Example 254, [3-[(dimethylamino)methyl]pi-perazin-1-yl]-[4-[[3-(3-fluoro-4-methoxyphenyl)imidazo[1,2-a]pyrazin-8-yl]amino]-2-methylphenyl]methanone; hy-drochloride] | 2100 nM |
| Cc1cc(Nc2nccn3c(-c4ccc(OCCCC#N)c(F)c4F)cnc23)ccc1C(=O)N1CCC(CN)CC1 [Example 120, 4-(4-(8-((4-(4-(aminomethyl)piperidine-1-carbonyl)-3-methylphenyl)amino)imidazo[1,2-a]pyrazin-3-yl)-2,3-difluorophenoxy)butanenitrile] | 1000 nM |
| COc1ccc(-c2cnc3c(Nc4ccc(C(=O)N5CCC(C(=O)NCC(O)CN6CCCC6)CC5)c(C)c4)nccn23)cc1F (stereo not shown) [Example 568, 1-(4-((3-(3-fluoro-4-methoxyphenyl)imidazo[1,2-a]pyrazin-8-yl)amino)-2-methylbenzoyl)-N-(2-hydroxy-3-(pyrrolidin-1-yl)propyl)piperidine-4-carboxamide] | 229 nM |
| COc1ccc(-c2cnc3c(Nc4ccc(C(=O)N5CCN(C(=O)C6CCCN6)CC5)c(C)c4)nccn23)cc1F (stereo not shown) [Example 174, [4-[[3-(3-fluoro-4-methoxy-phenyl)imidazo[1,2-a]pyrazin-8-yl]amino]-2-methyl-phenyl]-[4-(pyrrolidine-2-carbonyl)piperazin-1-yl]methanone] | 300 nM |
| Cc1cc(Nc2nccn3c(-c4ccc(OCC#N)c(F)c4Cl)cnc23)ccc1C(=O)N1CCC(C(=O)N2CCNC(CO)C2)CC1 (stereo not shown) [Example 97, 2-[3-chloro-2-fluoro-4-[8-[4-[4-[3-(hydroxymethyl)piperazine-1-carbonyl]piperidine-1-carbonyl]-3-methyl-anilino]imidazo[1,2-a]pyrazin-3-yl]phenoxy]acetonitrile trifluoroacetate] | 96 nM |
| COc1ccc(-c2cnc3c(Nc4ccc(C(=O)N5CCC(C(=O)N6CCNC7(CC7)C6)CC5)c(C)c4)nccn23)cc1F [Example 395, [4-(4,7-diazaspiro[2.5]octane-7-carbonyl)piperidin-1-yl]-[4-[[3-(3-fluoro-4-methoxyphenyl)imidazo[1,2-a]pyrazin-8-yl]amino]-2-methylphenyl]methanone; hy-drochloride] | 340 nM |
| COc1ccc(-c2cnc3c(Nc4ccc(C(=O)N5CCN(C(=O)[C@H]6CCNC[C@H]6O)CC5)c(C)c4)nccn23)c(F)c1F (racemic) [Example 195, [4-[[3-(2,3-difluoro-4-methoxy-phenyl)imidazo[1,2-a]pyrazin-8-yl]amino]-2-methyl-phenyl]-[4-[rac-(3S,4S)-3-hydroxypiperidine-4-carbonyl]piperazin-1-yl]methanone] | 290 nM |
| Cc1cc(Nc2nccn3c(-c4ccc(OCC#N)c(F)c4Cl)cnc23)ccc1C(=O)N1CCC(C(=O)OC[C@H]2CNCCN2)CC1 [Example 469, [(2R)-piperazin-2-yl]methyl 1-[4-[[3-[2-chloro-4-(cyanomethoxy)-3-fluorophenyl]imidazo[1,2-a]pyrazin-8-yl]amino]-2-methylbenzoyl]piperidine-4-carboxylate] | 88 nM |
| CNCC(=O)N1CCN(C(=O)c2ccc(Nc3nccn4c(-c5ccc(OC)c(F)c5F)cnc34)cc2C)CC1 [Example 308, 1-[4-[4-[[3-(2,3-difluoro-4-methoxyphenyl)imidazo[1,2-a]pyrazin-8-yl]amino]-2-methylbenzoyl]piperazin-1-yl]-2-(methylamino)ethanone; hy-drochloride] | 110 nM |

Same assay, conditions: Acinetobacter baumannii, ATCC17978, 16 h, read-out: ATCC17978 IC90, 90% growth inhibitory concentration, Acinetobacter baumannii ATCC17978, Iso-Sensitest broth, OD 600 nm over 16 h

| SMILES | IC90 |
| --- | --- |
| Cc1cc(Nc2nccn3c(-c4ccc(OC(F)F)cc4)cnc23)ccc1C(=O)N1CCN(C(=O)N2CCN(C)CC2)CC1 [Example 128, [4-[[3-[4-(difluoromethoxy)phenyl]imidazo[1,2-a]pyrazin-8-yl]amino]-2-methyl-phenyl]-[4-(4-methylpiperazine-1-carbonyl)piperazin-1-yl]methanone formate] | 190 nM |
| Cc1cc(Nc2nccn3c(-c4ccc(OC(F)F)cc4)cnc23)ccc1C(=O)N1CCN(C(=O)N2CCNC(CN)C2)CC1 (stereo not shown) [Example 500, [4-[3-(aminomethyl)piperazine-1-carbonyl]piperazin-1-yl]-[4-[[3-[4-(difluoromethoxy)phenyl]imi-dazo[1,2-a]pyrazin-8-yl]amino]-2-methylphenyl]methanone; for-mic acid] | 390 nM |
| Cc1cc(Nc2nccn3c(-c4ccc(OC(F)F)cc4)cnc23)ccc1C(=O)N1CCN(C(=O)CNC(=O)CN)CC1 [Example 345, 2-amino-N-[2-[4-[4-[[3-[4-(difluoromethoxy)phenyl]imi-dazo[1,2-a]pyrazin-8-yl]amino]-2-methylbenzoyl]piperazin-1-yl]-2-oxoethyl]acetamide] | 570 nM |
| COc1ccc(-c2cnc3c(Nc4ccc(C(=O)N5CCC(C(=O)NCCN6CCNCC6=O)CC5)c(C)c4)nccn23)cc1F [Example 412, 1-[4-[[3-(3-fluoro-4-methoxyphenyl)imidazo[1,2-a]pyrazin-8-yl]amino]-2-methylbenzoyl]-N-[2-(2-oxopiperazin-1-yl)ethyl]piperidine-4-carboxamide; 2,2,2-trifluoroacetic acid] | 760 nM |
| CNCCCNC(=O)C1CCN(C(=O)c2ccc(Nc3nccn4c(-c5ccc(OC)c(F)c5)cnc34)cc2C)CC1 [Example 49, 1-(4-((3-(3-fluoro-4-methoxyphenyl)imidazo[1,2-a]pyrazin-8-yl)amino)-2-methylbenzoyl)-N-(3-(methylamino)propyl)piperidine-4-carboxamide hydrochloride] | 270 nM |
| COc1ccc(-c2cnc3c(Nc4ccc(C(=O)N5CCN(C(=O)[C@@H]6C[C@@H](OC(=O)[C@@H]7CCCN7)CN6)CC5)c(C)c4)nccn23)c(F)c1F [Example 551, [(3R,5S)-5-[4-[4-[[3-(2,3-difluoro-4-methoxy-phenyl)imidazo[1,2-a]pyrazin-8-yl]amino]-2-methyl-benzoyl]piperazine-1-carbonyl]pyrrolidin-3-yl] pyrrolidine-2-carboxylate formate] | 196 nM |
| Cc1cc(Nc2nccn3c(-c4ccc(OC(F)F)cc4)cnc23)ccc1C(=O)N1CCC(N)CC1 [Example 361, (4-aminopiperidin-1-yl)-[4-[[3-[4-(difluoromethoxy)phenyl]imi-dazo[1,2-a]pyrazin-8-yl]amino]-2-methylphenyl]methanone; hy-drochloride] | 450 nM |
| Cc1cc(Nc2nccn3c(-c4ccc(OC(F)F)cc4)cnc23)ccc1C(=O)N1CCN(CCN2CCCCC2)CC1 [Example 355, [4-[[3-[4-(difluoromethoxy)phenyl]imi-dazo[1,2-a]pyrazin-8-yl]amino]-2-methylphenyl]-[4-(2-piperidin-1-ylethyl)piperazin-1-yl]methanone] | 260 nM |
| CCc1cc(Nc2nccn3c(-c4ccc(OCC#N)c(F)c4F)cnc23)ccc1C(=O)N1CCC(CCN)CC1 [Example 309, 2-[4-[8-[4-[4-(2-aminoethyl)piperidine-1-carbonyl]-3-ethylanilino]imidazo[1,2-a]pyrazin-3-yl]-2,3-difluorophenoxy]acetonitrile; formic acid] | 130 nM |
| Cc1cc(Nc2nccn3c(-c4ccc(OC(F)F)cc4)cnc23)ccc1C(=O)N1CCOC(CN)C1 (stereo not shown) [Example 364, [2-(aminomethyl)morpholin-4-yl]-[4-[[3-[4-(difluoromethoxy)phenyl]imi-dazo[1,2-a]pyrazin-8-yl]amino]-2-methylphenyl]methanone; hy-drochloride] | 530 nM |
| COc1ccc(-c2cnc3c(Nc4ccc(C(=O)N5CCN(C(=O)C6CCNCC6)CC5)c(C)c4)nccn23)c(Cl)c1F [Example 479, [4-[[3-(2-chloro-3-fluoro-4-methoxyphenyl)imidazo[1,2-a]pyrazin-8-yl]amino]-2-methylphenyl]-[4-(piperidine-4-carbonyl)piperazin-1-yl]methanone; formic acid] | 130 nM |

Same assay, conditions: read-out: ATCC17978 IC90; 90% growth inhibitory concentration, Acinetobacter baumannii ATCC17978, Iso-Sensitest broth, OD 600 nm over 16 h; hydrochloride

| SMILES | IC90 |
| --- | --- |
| Cc1cc(Nc2nccn3c(-c4ccc(OC(F)F)cc4)cnc23)ccc1C(=O)N1CCN(C(=O)C2(F)CCNCC2)CC1 [Example 487, [4-[[3-[4-(difluoromethoxy)phenyl]imi-dazo[1,2-a]pyrazin-8-yl]amino]-2-methylphenyl]-[4-(4-fluoropiperidine-4-carbonyl)piperazin-1-yl]methanone; hydrochloride] | 220 nM |
